Measured values as given in paper PMC6636782 (PLoS Neglected Tropical Diseases, 2019).
“Also recorded” adds a separate entry of the source. Residues, ends and D or L forms follow the SMILES beside them.

Assays:
HLA-B*07:02 = target: T1, HLA-B*07:02 (Homo sapiens, UniProt P01889); assay: cell-based
T1 construct: expressed in transfected cells; host or cells: RMA-S (TAP-deficient) cells transfected with HLA-B*07:02

[1] = test system: CD4^+ T cell activation, HLA-DRB1*04:04 transgenic mice splenocytes; type: cell-based; conditions: acute response to rVACV-CHIKV, listed as CHIKV E2_133-145
HLA-C*07:02 = HLA-C*07:02 (Homo sapiens, UniProt P10321)

CC[C@H](C)[C@H](NC(=O)[C@@H](NC(=O)[C@@H]1CCCN1C(=O)[C@H](CCCNC(=N)N)NC(=O)[C@@H]1CCCN1C(=O)[C@@H](NC(=O)[C@H](Cc1c[nH]c2ccccc12)NC(=O)[C@@H]1CCCN1C(=O)[C@@H](N)CCCNC(=N)N)[C@@H](C)O)[C@@H](C)O)C(=O)O (H-RPWTPRPTI-OH)
EC50 (HLA-B*07:02): 6 ± 6 µM

PPVIGREKFHSRP
recognition of peptide-pulsed cells by spleen cells [1]: specifically recognized; also recorded: presented and recognized as an epitope bound to DRB1*04:04

YEHVTVIPNTVGVPYK
detection in HLA-bound peptide pool (HLA-C*07:02): most likely a HLA-C*07:02 ligand
